Earlier results in US20240009304A1, “USE OF NGF ANTIBODY IN CIPN PAIN” (Dartsbio Pharmaceuticals Ltd., priority 2020, published 2024).

Key:
[1] = test system: dopamine reuptake; conditions: preclinical studies, background; cited from earlier work
[2] = test system: CIPN pain; conditions: background statement; cited from earlier work
[3] = test system: dopaminergic receptor, adrenergic receptor, cholinergic receptor, histaminergic receptor, opioid receptor, glutamate receptor and GABA receptor; conditions: in vitro study, background; cited from earlier work
[4] = test system: neuronal NE reuptake; conditions: preclinical studies, background; cited from earlier work
[5] = test system: monoamine oxidase; conditions: background; cited from earlier work
[6] = test system: neuronal 5-HT reuptake; conditions: preclinical studies, background; cited from earlier work

SMILES	inhibitory effect on dopamine reuptake [1]	effect in the treatment of CIPN pain [2]	affinity with receptors [3]	neuronal NE reuptake inhibition [4]	inhibition of monoamine oxidase [5]	neuronal 5-HT reuptake inhibition [6]
CNCC[C@H](Oc1cccc2ccccc12)c1cccs1 [Duloxetine]	relatively weak	proven to be effective	no obvious affinity	strong inhibitor	does not inhibit	strong inhibitor
NCC1(CC(=O)O)CCCCC1 [gabapentin]	–	do not seem to be more effective than placebo	–	–	–	–
CN(C)CCC=C1c2ccccc2CCc2ccccc21 [amitriptyline]	–	do not seem to be more effective than placebo	–	–	–	–
CC(C)C[C@H](CN)CC(=O)O [pregabalin]	–	do not seem to be more effective than placebo	–	–	–	–
